Here are results for four compounds from patent US5686613A, “Tridentate metal ligands of certain pyridine phosphonic acids” (priority 1996, dated 1997).

Series [1] in a line: Degradation of Fe(III)-2,6 PDPA in H2S redox reaction without stabilizer (uv-vis spectrophotometric analysis), pH 8.5 and 25° C. The format is physicochemical. As to conditions: pH 8.5, 25° C., no stabilizer. As for the experimental part: Both ligands were evaluated in the iron chelate form.
The concentration of 2,6 PDPA was analyzed by the following uv-vis spectrophotometric measurements: to 1.0 mL of solution taken from the continuous reactor, 150 mg of NaOH in 15 mL water was added with stirring. The mixture was heated with a steam-bath for 2 hr, then allowed to stand at room temperature for 2 hr. […] The filtrate combined with the washings, was transferred to a 50 mL volumetric flask, and diluted to […] with 6M HCl. This solution was ready for uv-vis spectrophotometric analysis.

Series [2] in a line: Degradation of Fe(III) chelate ligand in H2S redox reaction in the presence of thiosulfate stabilizer. It is filed as physicochemical. As to conditions: for NTA (M) (concentration remaining) / NTA, % Remaining: Fe(III)-NTA, pH 8.5, 32 g Na2S2O3 per liter. The source says:
Table 3 and FIG. 5 contain the data obtained from a run with the continuous glass reaction apparatus described above.

For series [3] the following is noted: iron chelate, cited from earlier work.
How the values of series [4] were obtained:
The degradation resistances of pyridine-2-phosphonic-6-carboxylic acid (2P6C) and pyridine-2,6-diphosphonic acid (2,6-PDPA), prepared by the synthesis schemes presented in FIGS. 2 and 3, respectively, were evaluated as described below. Both ligands were evaluated in the iron chelate form.
1. Degradation of Fe(III)-2P6C at pH 8.5 and 25° C. (Fe(III)0.018M, 2P6C 0.036 M; H2 S flow rate=2.0 mL/min.)
(§1) The redox reaction was carried out in a continuous glass reaction apparatus as described in D. Chen, R. J. Motekaitis, A. E. Martell and D. McManus, Can. J. Chem., 71, 1524 (1993) which is incorporated herein by reference.
Preparation of iron-free sample. To 4.0 mL of solution taken from the continuous reactor, 100 mg of NaOH in 20 mL water were added dropwise with stirring. The mixture was heated to 70°-80° C. for 30 min. The Fe(OH)3 that precipitated was filtered off carefully and was washed several times with water. The filtrate was combined with the washings and was transferred to a 50 mL volumetric flask. The pH of the solution was adjusted with acid to 4.2, and then diluted with distilled water to 50 mL.
Operating conditions. Analytical column: I-SIL 5 C8, reverse phase 4.5×150 mm; Column temperature: ambient; mobile phase flow rate: 1.5 mL/min; Detector: UV at 275 nm, 0.20 AUFS; Sample volume: 20 microliter; Recorder: 10 mV full-scale; Chart speed: 0.5 cm/min. The mobile phase contained: 0.0010 M Cu(II), 60:40 H2 O: MeOH, 2% HOAc, 0.2% CH3 (CH2)15 (CH3)3 NBr, adjusted to pH 4.2 With NaOH solution.
Using the same test conditions described above, the degradation of nitrilotriacetic acid (NTA) was evaluated.

How the values of series [5] were obtained: as §1
Experimental runs were also conducted with 2P6C, with and without K2 SO3 added as a stabilizer.
The source holds these as a separate data set.

[6] abbreviates: h2s redox reactor, 100 h, 36000 µM, pH 8.5.

Like-named read-outs stand apart in the source and are kept apart here.

With `O=P(O)(O)c1cccc(P(=O)(O)O)n1` [2,6-PDPA, pyridine-2,6-diphosphonic acid], the “degradation” value in series [1] (100 hr, Fe(III) 0.0090 M, 2,6 PDPA 0.018 M) is reported as “no significant degradation was observed”. For the same compound, the “degradation, estimated” value in series [1] (over 100 hr, 18000 µM) was “less than 5%”. Further, in series [2] (after 100 hr of operation, thiosulfate), the “degradation in the presence of thiosulfate” value was “no detectable degradation was observed”.

Regarding `O=C(O)c1cccc(C(=O)O)n1` [2,6-pyridinedicarboxylic acid], in series [3] (normal pH of the process), the “precipitation of ferric hydroxide from ferric chelate” value is “unacceptable precipitation of ferric hydroxide”. Moreover, the “resistance to catalyst degradation” value in series [3] is listed as “good resistance to catalyst degradation”.

On to `O=C(O)c1cccc(P(=O)(O)O)n1` [2P6C, pyridine-2-phosphonic-6-carboxylic acid], for which, in series [4], the “degradation compared with NTA” value is listed as “degrades much more slowly than NTA”. Moreover, the “2P6C % Remaining” value in series [4] (0 min, 36000 uM, pH 8.5) worked out at 100.0%; in series [4] (h2s redox reactor, 25 h, 36000 µM, pH 8.5) it was 94.4%; in series [4] (h2s redox reactor, 50 h, 36000 µM, pH 8.5), 86.1%; in series [4] (h2s redox reactor, 84 h, 36000 µM, pH 8.5), 83.3%; in series [4] (setting [6]), 80.6%; in series [5] (0 min), 100.0%. Besides, the “2P6C % Remaining” value in series [5] (h2s reactor, 5% k2so3, 2 h) is recorded as 100.0%; in series [5] (h2s reactor, 5% k2so3, 20 h), 97.7%; in series [5] (h2s reactor, 5% k2so3, 44 h) it was 97.6%; in series [5] (h2s reactor, 5% k2so3, 68 h), 97.4%; in series [5] (h2s reactor, 5% k2so3, 92 h), 98.9%. The “2P6C lost after redox reaction” value in series [4] (setting [6]) is on record as “about 20%”. Besides, the “degradation during the redox reaction” value in series [4] (pH 8.5) was “degrades very slowly”. Moreover, the “effect of hydroxylation/degradation on the process” value in series [4] (pH 8.5) is “no deleterious effect on the process is observed”. In addition, the “degradation in the presence of thiosulfate” value in series [2] is on record as “no detectable degradation was observed”.

`O=C(O)CN(CC(=O)O)CC(=O)O` [NTA, nitrilotriacetic acid]: the “NTA, % Remaining” value in series [4] (0 min, pH 8.5) came to 100.0%; in series [4] (h2s redox reactor, 12 h, pH 8.5), 75.7%; in series [4] (h2s redox reactor, 20 h, pH 8.5), 65.7%; in series [4] (h2s redox reactor, 30 h, pH 8.5), 52.4%; in series [4] (h2s redox reactor, 40 h, pH 8.5) it was 49.4%; in series [4] (h2s redox reactor, 64 h, pH 8.5) it was 32.9%. Also, the “NTA, % Remaining” value in series [4] (h2s redox reactor, 77 h, pH 8.5) was 26.2%; in series [2] (0 hr), 100.0%; in series [2] (14.0 hr) it was 95.0%; in series [2] (26.0 hr), 92.0%; in series [2] (39.0 hr), 88.4%; in series [2] (50.0 hr), 87.6%. The “NTA, % Remaining” value in series [2] (66.0 hr) is recorded as 84.5%; in series [2] (80.0 hr), 82.0%; in series [2] (99.0 hr), 80.9%. Besides, in series [2], the “degradation with thiosulfate” value is “much slower when thiosulfate is added”. Moreover, the “rate of degradation with thiosulfate” value in series [2] is recorded as “still measurable”. Further, the “NTA (M) (concentration remaining)” value came out at 0.0362 M in series [2] (0 hr); 0.0344 M in series [2] (14.0 hr); 0.0333 M in series [2] (26.0 hr); 0.0320 M in series [2] (39.0 hr); 0.0317 M in series [2] (50.0 hr); 0.0306 M in series [2] (66.0 hr). Also, the “NTA (M) (concentration remaining)” value is recorded as 0.0297 M in series [2] (80.0 hr) and 0.0293 M in series [2] (99.0 hr).
